Columns and labels:
C6 glioma cell line = assay: Growth of glioma cells in culture; assay type: cell-based; settings: 0.1 and 1 μg in 50 ml β-cyclodextrine solution, 3 div + 6 days
Experimental: The effect of compound from the example 9 (the model molecule) on growth of glioma cells was studied on C6 glioma cell line (ATTC, Rockville). The model molecule was tested at doses of 0.1 and 1 μg dissolved in 50 ml of β-cyclodextrine solution. Parallel control groups were administered by cholesterol at doses of 0.1 and 1 μg dissolved in 50 ml of β-cyclodextrine solution. The last group included in the experiment was left intact without any application.
The cells were cultivated in vitro for 3 days (div). Afterwards tested molecule was applied and the cell culture was studied for additional 6 days. Olympus microscope with phase contrast and 200× magnification was used for the cell monitoring.

Long-Evans rats = assay: Scopolamine-induced cognitive deficit in AAPA (model of Alzheimer disease); assay type: in vivo, rat; settings: Example 9 1 ml/kg of 1.0 mg/ml i.p. + scopolamine 2.0 mg/kg
Experimental: The effect of the compound from example 9 on an animal model of age-related cognitive decline and neurodegenerative disorders (including Alzheimer disease) is documented. In the present experiment the effect of central muscarinic blockade by systemic administration of scopolamine at dose 2.0 mg/kg on both reinforced retention of the AAPA and re-acquisition of the AAPA in a new environment was investigated (by the standard method described previously; see Vales and Stuchlik, 2005).
The compound from example 9 was dissolved in β-cyclodextrine (at a concentration of 1.0 mg/ml). Animals were injected intraperitoneally with 1 ml/kg b.w. of this solution or with 1 ml/kg b.w. of β-cyclodextrine. All animals thus received the same volume of liquid per body weight in each injection. Injections were delivered 40 min prior to behavioural testing). Scopolamine hydrobromide (scopolamine; Sigma Aldrich) was dissolved in saline (0.9% NaCl, 2.0 mg/ml). Animals were injected intraperitoneally with 1 ml/kg b.w. of this solution or with 1 ml/kg b.w. of saline. All animals thus received the same volume of liquid per body weight in each injection. Injections were delivered 20 min prior to behavioural testing. Adult male hooded rats of the Long-Evans strain (3 months old; weighing 300-400g) was used.
The active allothetic place avoidance apparatus is described in example 28. […]

CC(=O)[C@H]1CC[C@H]2[C@@H]3CC[C@@H]4C[C@H](OC(=O)[C@@H](N)CCC(=O)O)CC[C@]4(C)[C@H]3CC[C@]12C [Example 9, 20-Oxo-5β-pregnan-3α-yl L-glutamyl 1-ester]
effect on growth of glioma cells (C6 glioma cell line): overall slight cytostatic and pro-differentiation effect on glioma cells | scopolamine-induced deficit in AAPA (number of entrances) (Long-Evans rats): tends to be decreased
